How the values were obtained:
[1] = target: T1, tau protein (Homo sapiens, UniProt P10636); assay: Tau-BiFC cell model, Forskolin-induced tau protein aggregation; assay type: cell-based; conditions: for Tau BiFC in cells Response (%, @10 μM): 10 μM compound, BiFC fluorescence relative to Forskolin-only group (100% tau protein-aggregated state), 48 hours
T1 construct: fused on or other part: Split Venus fragments VN173 and VC155, each fused to one copy of tau as BiFC reporter halves
Description: (§1) In order to select novel tau protein aggregation—inhibiting substances, tau-BiFC cell model, in which formation of tau oligomers in living cells is easily observed, was used. Tau-BiFC cells were aliquoted into a 384-well plate. […] After 48 hours, nuclei in the cells were stained using Hoechst (at a treatment concentration of 2 μg/mL), and BiFC fluorescence intensity was automatically measured using Operetta (PerkinElmer) to count stained nuclei in each well out of the entire well plate. […] Furthermore, the degree of cytotoxicity induced by the newly synthesized compound was also measured based on the 100% cell viability of the group treated only with Forskolin as a reference, and the cytotoxicity value of each compound was calculated using the equation “(number of stained nuclei in group treated with compound/number of stained nuclei in group treated with Forskolin)×100”.
(§2) After 48 hours, tau protein aggregation reaction and degrees of cytotoxicity were analyzed by observing images of the cells. IC50 and toxicity of the compounds were analyzed by nonlinear regression analysis of Prism software (Graph Pad).

[2] = target: T2, CYP1A2 (Homo sapiens, UniProt P05177); assay: CYP coenzyme activity in human liver microsomes, CYP1A2; assay type: in vitro ADME; conditions: 10 μM compound, human liver microsomes 0.25 mg/mL, substrate phenacetin, 15 minutes
T2 construct: human liver microsomes (0.25 mg/mL); from tissue; host or cells: human liver microsomes
T2 sequence (P05177 1-516): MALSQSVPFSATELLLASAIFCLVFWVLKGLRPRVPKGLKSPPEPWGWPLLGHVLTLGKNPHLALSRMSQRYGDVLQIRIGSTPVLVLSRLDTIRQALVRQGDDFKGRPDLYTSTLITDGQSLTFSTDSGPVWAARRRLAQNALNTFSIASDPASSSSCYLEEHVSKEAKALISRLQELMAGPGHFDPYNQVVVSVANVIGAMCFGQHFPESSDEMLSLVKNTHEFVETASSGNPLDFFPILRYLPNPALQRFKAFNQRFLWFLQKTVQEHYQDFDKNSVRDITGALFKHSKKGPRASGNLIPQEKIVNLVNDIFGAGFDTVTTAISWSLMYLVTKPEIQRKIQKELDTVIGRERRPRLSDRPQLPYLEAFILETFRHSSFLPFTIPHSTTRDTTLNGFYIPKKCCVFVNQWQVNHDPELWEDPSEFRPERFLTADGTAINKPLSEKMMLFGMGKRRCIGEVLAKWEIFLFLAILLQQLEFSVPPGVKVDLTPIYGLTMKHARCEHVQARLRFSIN
Description: (§3) Specifically, human liver microsomes (0.25 mg/mL), a 0.1 M phosphate buffer solution (pH 7.4), a substrate drug cocktail of five types of drug metabolism enzymes (50 μM phenacetin, 10 μM diclofenac, 100 μM S-mephenytoin, 5 μM dextromethorphan, and 2.5 μM midazolam), and the compound at a concentration of 0 μM or 10 μM were mixed and pre-cultured at 37° C. for 5 minutes, and then further cultured at 37° C. for 15 minutes together with an NADPH generation system solution added thereto. Thereafter, the reaction was terminated by adding an acetonitrile solution containing an internal standard material (terfenadine) and centrifuged for 5 minutes (14,000 rpm, 4° C.), and then a supernatant was injected into an LC-MS/MS system for simultaneous analysis of metabolites of the substrate drugs to thereby evaluate the inhibitory effects on drug metabolism.
(§4) Metabolites of each CYP coenzyme indicator drug generated through the reaction were analyzed using the Shimadzu Nexera XR system and TSQ Vantage (Thermo). In an HPLC column, Kinetex C18 (2.1 mm×100 mm, 2.6 μm particle size; Phenomenex, USA) was used, and mobile phases were (A) distilled water containing 0.1% formic acid and (B) acetonitrile containing 0.1% formic acid, and a gradient program shown in Table 3 was applied thereto.
(§5) The generated metabolites were quantified using a multiple reaction monitoring (MRM) quantification mode, and Xcalibur (version 1.6.1) was used for data analysis. In order to express the inhibitory effects of the novel compounds prepared according to the examples of the present invention on CYP coenzyme activity, CYP coenzyme activities (%) with respect to the control group not treated with any compound are shown in Table 4 below.

[3] = target: T3, CYP2C19 (Homo sapiens, UniProt P33261); assay: CYP coenzyme activity in human liver microsomes, CYP2C19; assay type: in vitro ADME; conditions: 10 μM compound, human liver microsomes 0.25 mg/mL, substrate S-mephenytoin, 15 minutes
T3 construct: human liver microsomes (0.25 mg/mL); from tissue; host or cells: human liver microsomes
T3 sequence (P33261 whole entry): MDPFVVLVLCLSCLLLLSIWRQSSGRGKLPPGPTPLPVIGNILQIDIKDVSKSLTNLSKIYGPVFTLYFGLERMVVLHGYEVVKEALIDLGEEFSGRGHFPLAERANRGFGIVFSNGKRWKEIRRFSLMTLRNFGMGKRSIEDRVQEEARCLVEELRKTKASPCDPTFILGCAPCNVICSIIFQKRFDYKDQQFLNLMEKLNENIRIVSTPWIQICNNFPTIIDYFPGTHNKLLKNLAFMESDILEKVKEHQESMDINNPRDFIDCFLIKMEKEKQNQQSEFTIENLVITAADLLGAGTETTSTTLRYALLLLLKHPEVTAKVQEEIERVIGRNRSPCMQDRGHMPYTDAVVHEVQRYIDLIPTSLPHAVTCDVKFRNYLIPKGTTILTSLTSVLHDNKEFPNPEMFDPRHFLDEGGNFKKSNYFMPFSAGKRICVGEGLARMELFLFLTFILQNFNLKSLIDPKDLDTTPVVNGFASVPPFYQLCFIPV
Description: as §3, §4, §5

[4] = Liver microsome stability, mouse; assay type: in vitro ADME; conditions: mouse liver microsomes 0.25 mg/mL, 1 μM compound, 37° C., 30 minutes, NADPH
Description: (§6) The stability of liver microsomes due to the compounds prepared according to Examples 1 to 14 was confirmed. Specifically, four types of liver microsomes (human, dog, rat, and mouse, each 0.25 mg/mL), a 0.1 M phosphate buffer solution (pH 7.4), and each of the compounds at a concentration of 1 μM were mixed and pre-cultured at 37° C. for 5 minutes and further cultured at 37° C. for 30 minutes together with an NADPH generation system solution added thereto. Thereafter, the reaction was terminated by adding an acetonitrile solution containing an internal standard material (chlorpropamide) and centrifuged for 5 minutes (14,000 rpm, 4° C.), and then a supernatant was injected into an LC-MS/MS system for analysis of substrate drugs to thereby evaluate metabolic stability due to 8 types of compounds.
(§7) The amount of the substrate remaining after the reaction was analyzed using the Shimadzu Nexera XR system and TSQ Vantage (Thermo). In an HPLC column, Kinetex XB-C18 (2.1 mm×100 mm, particle size of 2.6 μm; Phenomenex, USA) was used, and mobile phases were (A) distilled water containing 0.1% formic acid and (B) acetonitrile containing 0.1% formic acid. Analyst software (version 1.6.3) and Xcalibur (version 1.6.1) were used for data analysis.

[5] = Liver microsome stability, human; assay type: in vitro ADME; conditions: human liver microsomes 0.25 mg/mL, 1 μM compound, 37° C., 30 minutes, NADPH
Description: as §6, §7

[6] = Liver microsome stability, dog; assay type: in vitro ADME; conditions: dog liver microsomes 0.25 mg/mL, 1 μM compound, 37° C., 30 minutes, NADPH
Description: as §6, §7

[7] = target: T4, CYP3A4 (Homo sapiens, UniProt P08684); assay: CYP coenzyme activity in human liver microsomes, CYP3A4; assay type: in vitro ADME; conditions: 10 μM compound, human liver microsomes 0.25 mg/mL, substrate midazolam, 15 minutes
T4 construct: human liver microsomes (0.25 mg/mL); from tissue; host or cells: human liver microsomes
T4 sequence (P08684 whole entry): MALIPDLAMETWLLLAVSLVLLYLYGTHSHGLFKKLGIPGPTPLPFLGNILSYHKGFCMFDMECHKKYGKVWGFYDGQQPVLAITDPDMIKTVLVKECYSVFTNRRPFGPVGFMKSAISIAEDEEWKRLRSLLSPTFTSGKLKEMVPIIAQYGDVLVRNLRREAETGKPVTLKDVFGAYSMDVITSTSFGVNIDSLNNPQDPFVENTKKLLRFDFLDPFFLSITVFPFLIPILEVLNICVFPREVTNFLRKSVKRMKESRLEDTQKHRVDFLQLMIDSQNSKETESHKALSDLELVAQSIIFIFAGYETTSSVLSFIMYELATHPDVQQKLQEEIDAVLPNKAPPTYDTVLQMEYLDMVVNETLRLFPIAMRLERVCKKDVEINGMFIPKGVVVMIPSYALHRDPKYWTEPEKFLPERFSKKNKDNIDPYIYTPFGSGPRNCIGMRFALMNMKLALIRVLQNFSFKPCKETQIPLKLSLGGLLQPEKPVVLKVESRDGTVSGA
Description: as §3, §4, §5

[8] = tested on: Tau-BiFC cells; assay: Cell viability (stained nuclei count) in tau-BiFC cells; conditions: 10 μM compound; stained nuclei relative to Forskolin-only group (100%), 48 hours
Description: as §1, §2

[9] = Liver microsome stability, rat; assay type: in vitro ADME; conditions: rat liver microsomes 0.25 mg/mL, 1 μM compound, 37° C., 30 minutes, NADPH
Description: as §6, §7

[10] = target: T5, CYP2D6 (Homo sapiens, UniProt P10635); assay: CYP coenzyme activity in human liver microsomes, CYP2D6; assay type: in vitro ADME; conditions: 10 μM compound, human liver microsomes 0.25 mg/mL, substrate dextromethorphan, 15 minutes
T5 construct: human liver microsomes (0.25 mg/mL); from tissue; host or cells: human liver microsomes
T5 sequence (P10635 whole entry): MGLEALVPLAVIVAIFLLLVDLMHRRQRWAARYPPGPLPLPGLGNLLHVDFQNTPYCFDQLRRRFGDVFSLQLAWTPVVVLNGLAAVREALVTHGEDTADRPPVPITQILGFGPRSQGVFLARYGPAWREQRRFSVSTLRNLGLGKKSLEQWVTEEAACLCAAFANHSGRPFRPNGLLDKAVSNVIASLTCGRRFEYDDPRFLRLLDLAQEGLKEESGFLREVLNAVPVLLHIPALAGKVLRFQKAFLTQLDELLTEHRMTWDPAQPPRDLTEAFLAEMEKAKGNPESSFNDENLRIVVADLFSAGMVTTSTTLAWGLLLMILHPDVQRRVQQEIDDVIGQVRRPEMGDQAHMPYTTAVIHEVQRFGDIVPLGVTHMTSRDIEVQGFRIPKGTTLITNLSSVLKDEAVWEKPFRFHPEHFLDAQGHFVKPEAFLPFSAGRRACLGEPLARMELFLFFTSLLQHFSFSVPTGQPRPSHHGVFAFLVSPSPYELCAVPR
Description: as §3, §4, §5

[11] = target: T6, CYP2C9 (Homo sapiens, UniProt P11712); assay: CYP coenzyme activity in human liver microsomes, CYP2C9; assay type: in vitro ADME; conditions: 10 μM compound, human liver microsomes 0.25 mg/mL, substrate diclofenac, 15 minutes
T6 construct: human liver microsomes (0.25 mg/mL); from tissue; host or cells: human liver microsomes
T6 sequence (P11712 whole entry): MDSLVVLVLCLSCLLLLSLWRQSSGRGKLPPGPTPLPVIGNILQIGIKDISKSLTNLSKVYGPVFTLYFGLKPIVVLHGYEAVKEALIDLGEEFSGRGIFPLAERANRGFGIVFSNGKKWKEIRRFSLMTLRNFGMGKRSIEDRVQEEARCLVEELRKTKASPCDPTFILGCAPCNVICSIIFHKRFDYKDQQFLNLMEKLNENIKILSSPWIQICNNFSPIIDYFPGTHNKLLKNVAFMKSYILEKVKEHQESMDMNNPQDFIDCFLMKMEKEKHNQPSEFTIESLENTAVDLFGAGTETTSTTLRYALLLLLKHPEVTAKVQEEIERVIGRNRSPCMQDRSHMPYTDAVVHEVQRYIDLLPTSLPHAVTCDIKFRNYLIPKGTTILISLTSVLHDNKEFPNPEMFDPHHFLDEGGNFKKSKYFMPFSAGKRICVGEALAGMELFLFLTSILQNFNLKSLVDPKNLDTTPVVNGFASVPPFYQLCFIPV
Description: as §3, §4, §5

T1 sequence (P10636 2-441 isoform P10636-8 limits assumed): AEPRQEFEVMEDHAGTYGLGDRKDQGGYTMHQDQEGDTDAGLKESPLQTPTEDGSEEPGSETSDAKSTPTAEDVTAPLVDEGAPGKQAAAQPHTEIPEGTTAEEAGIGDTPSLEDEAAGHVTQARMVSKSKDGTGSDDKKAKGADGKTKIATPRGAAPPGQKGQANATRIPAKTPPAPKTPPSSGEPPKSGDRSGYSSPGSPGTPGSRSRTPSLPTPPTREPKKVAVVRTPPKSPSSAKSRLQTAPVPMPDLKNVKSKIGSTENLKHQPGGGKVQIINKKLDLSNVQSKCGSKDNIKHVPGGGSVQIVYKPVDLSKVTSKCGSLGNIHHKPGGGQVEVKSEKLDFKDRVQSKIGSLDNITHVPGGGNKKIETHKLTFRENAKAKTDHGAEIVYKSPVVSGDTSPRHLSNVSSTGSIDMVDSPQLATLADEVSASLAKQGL

SMILES | IC50 [1] [nM] | Tau BiFC in cells Response (%, @10 μM) [1] [%] | CYP1A2 activity (%) with respect to control group not treated with any compound [2] [%] | CYP2C19 activity (%) with respect to control group not treated with any compound [3] [%] | Mouse (%) amount remaining after the reaction [4] [%] | Human (%) amount remaining after the reaction [5] [%] | Dog (%) amount remaining after the reaction [6] [%] | CYP3A4 activity (%) with respect to control group not treated with any compound [7] [%] | Cell viability (%, @10 μM) [8] [%] | Rat (%) amount remaining after the reaction [9] [%] | CYP2D6 activity (%) with respect to control group not treated with any compound [10] [%] | CYP2C9 activity (%) with respect to control group not treated with any compound [11] [%]
COCCN1N=C(c2ccc(NN=C(C#N)C#N)cc2)C(C)CC1=O (stereo not drawn) [Example 5, (4-(1-(2-methoxyethyl)-4-methyl-6-oxo-1,4,5,6-tetrahydropyridazin-3-yl)phenyl)carbonohydrazonoyl dicyanide] | 90 | 15.6 | 70 | 63.4 | 94.9 | 30.9 | >100 | 74.2 | 95.7 | 90.9 | 70.4 | 71.5
CC1CC(=O)N(C2CC2)N=C1c1ccc(NN=C(C#N)C#N)cc1 (stereo not drawn) [Example 6, (4-(1-cyclopropyl-4-methyl-6-oxo-1,4,5,6-tetrahydropyridazin-3-yl)phenyl)carbonohydrazonoyl dicyanide] | 70 | 0 | 78.6 | 74.2 | 92.7 | 85 | 99.5 | 79.5 | 62.9 | 95.8 | 72.6 | 74.2
